Data: US10463644B2, “Uses of sesquiterpene lactone compounds and their derivatives in drugs preparation” (ACCENDATECH, priority 2013, dated 2019)
Where two headings read alike, the source gives them in different places.

Legend:
[1] = tested on: TNF-α secreted by synoviocyte; assay: Content of TNF-α in culture supernatant of synoviocyte of RA model rats given test compound; format: in vivo; settings: rat RA model, dose 30 mg/kg.2d, normal control 0.38 ± 0.027, NaCl 0.74 ± 0.098
Method in brief: (§1)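 Values reflect mediator secretion by synoviocytes taken from arthritic rats dosed at 30 mg/kg.2d. Normal and NaCl groups served as references.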

[2] = tested on: IL-1β secreted by synoviocyte; assay: Content of IL-1β in culture supernatant of synoviocyte of RA model rats given test compound; format: in vivo; settings: rat RA model, dose 30 mg/kg.2d, normal control 0.16 ± 0.034, NaCl 0.49 ± 0.136
Method in brief: as §1

[3] = tested on: PGE2 secreted by synoviocyte; assay: Content of PGE2 in culture supernatant of synoviocyte of RA model rats given test compound; format: in vivo; settings: rat RA model, dose 30 mg/kg.2d, normal control 8.34 ± 1.29, NaCl 32.44 ± 10.32
Method in brief: as §1

[4] = tested on: cancer stem cells; assay: Survival rate of cancer stem cells after test compound is added (flow cytometry, Annexin V-FITC/PI, clinical specimen); format: cell-based, patient; settings: Homo sapiens, 18 h
Method in brief: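 Patient tumour or leukaemia cells, identified by cancer-specific stem-cell markers (CD34+/CD38+ for AML), are treated with compound for 18 hours in serum-free IMDM. Apoptosis is then measured as Annexin V-FITC/PI staining by flow cytometry.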

[5] = tested on: normal cells; assay: Survival rate of normal cells after test compound is added (flow cytometry, Annexin V-FITC/PI); format: cell-based; settings: 18 h
Method in brief: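 Steps: density-gradient isolation of mononuclear cells from fresh or cryopreserved clinical samples; 18-hour compound exposure at 1×10^6 cells/mL; staining for stem-cell surface markers, then Annexin V-FITC and PI; flow cytometric apoptosis analysis.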

[6] = Head and neck squamous cell carcinomas
[7] = read-out: Survival rate (%) All cells (Stem cells and ordinary cells)
[8] = read-out: Survival rate (%) Stem cells

In the case of `CC1=C2CC[C@@](C)(O)[C@@H]2[C@H]2OC(=O)[C@@H](CN(C)C)[C@@H]2CC1` [Compound 23], the “Content of TNF-α in culture supernatant of synoviocyte (x ± s)” value (shortened to “Content of TNF-α”) ([1]; 30 mg/kg) is reported as 0.63 ± 0.063 ng/mL, the “Content of IL-1β in culture supernatant of synoviocyte (x ± s)” value (from here on “Content of IL-1β”) ([2]; 30 mg/kg) is reported as 0.36 ± 0.065 ng/mL and the “Content of PGE2 in culture supernatant of synoviocyte (x ± s)” value (“Content of PGE2” for short) ([3]; 30 mg/kg) is reported as 21.71 ± 2.32 ng/mL. It also gave a viability at 10 µM ([4]; AML) of 85%, a viability at 20 µM ([4]; AML) of 72% and a viability at 10 µM ([4]; Brain glioma) of 84%. The viability at 20 µM ([4]; Brain glioma) was 76%, the viability at 10 µM ([4]; Brain tumor) was 85% and the viability at 20 µM ([4]; Brain tumor) was 73%. The viability at 10 µM ([4]; Breast cancer) was 84%, the viability at 20 µM ([4]; Breast cancer) was 74% and the viability at 10 µM ([4]; CLL) was 86%. The viability at 20 µM ([4]; CLL) was 74%, the viability at 10 µM ([4]; CML) was 87% and the viability at 20 µM ([4]; CML) was 71%. For the same compound, the viability at 10 µM ([4]; Children hepatoblastoma) was 85%, the viability at 20 µM ([4]; Children hepatoblastoma) was 79% and the viability at 10 µM ([4]; Colon adenocarcinoma) was 88%. For the same compound, the viability at 20 µM ([4]; Colon adenocarcinoma) was 81%, the viability at 10 µM ([4]; Colorectal cancer) was 79% and the viability at 20 µM ([4]; Colorectal cancer) was 72%. The viability at 10 µM ([4]; Gastric cancer) was 82%, the viability at 20 µM ([4]; Gastric cancer) was 77% and the viability at 10 µM ([4]; Gastrointestinal tumor) was 91%. It also gave a viability at 20 µM ([4]; Gastrointestinal tumor) of 82%, a viability at 10 µM ([4]; Glioma) of 87% and a viability at 20 µM ([4]; Glioma) of 76%. For the same compound, the viability at 10 µM [4, 6] was 84%, the viability at 20 µM [4, 6] was 78% and the viability at 10 µM ([4]; Laryngeal cancer) was 79%. For the same compound, the viability at 20 µM ([4]; Laryngeal cancer) was 73%, the viability at 10 µM ([4]; Liver cancer) was 82% and the viability at 20 µM ([4]; Liver cancer) was 79%. It also gave a viability at 10 µM ([4]; Lung adenocarcinoma) of 85%, a viability at 20 µM ([4]; Lung adenocarcinoma) of 82% and a viability at 10 µM ([4]; Lung cancer) of 85%. For the same compound, the viability at 20 µM ([4]; Lung cancer) was 78%, the viability at 10 µM ([4]; Malignant melanoma) was 82% and the viability at 20 µM ([4]; Malignant melanoma) was 76%. For the same compound, the viability at 10 µM ([4]; Nasopharynx cancer) was 85%, the viability at 20 µM ([4]; Nasopharynx cancer) was 74% and the viability at 10 µM ([4]; Ovarian cancer) was 87%. For the same compound, the viability at 20 µM ([4]; Ovarian cancer) was 75%, the viability at 10 µM ([4]; Pancreatic cancer) was 87% and the viability at 20 µM ([4]; Pancreatic cancer) was 77%. The viability at 10 µM ([4]; Prostate cancer) was 85%, the viability at 20 µM ([4]; Prostate cancer) was 77% and the viability at 10 µM ([4]; Retinoblastoma) was 82%. It also gave a viability at 20 µM ([4]; Retinoblastoma) of 74%, a viability at 10 µM ([4]; Skin cancer) of 85% and a viability at 20 µM ([4]; Skin cancer) of 75%. For the same compound, the viability at 10 µM [5, 7] was 96%, the viability at 10 µM [5, 8] was 93% and the viability at 20 µM [5, 7] was 95%. For the same compound, the viability at 20 µM [5, 8] was 92%.

With `C=C1C(=O)O[C@H]2[C@H]1CC[C@]1(C)O[C@@]13CC[C@@](C)(O)[C@H]23` [Compound 24] the “Content of TNF-α” value [1] was 0.54 ± 0.057 ng/mL, the “Content of IL-1β” value [2] was 0.37 ± 0.051 ng/mL and the “Content of PGE2” value [3] was 23.63 ± 1.35 ng/mL. The viability at 10 µM ([4]; AML) was 48%, the viability at 20 µM ([4]; AML) was 39% and the viability at 10 µM ([4]; Brain glioma) was 52%. It also gave a viability at 20 µM ([4]; Brain glioma) of 42%, a viability at 10 µM ([4]; Brain tumor) of 66% and a viability at 20 µM ([4]; Brain tumor) of 54%. It also gave a viability at 10 µM ([4]; Breast cancer) of 54%, a viability at 20 µM ([4]; Breast cancer) of 47% and a viability at 10 µM ([4]; CLL) of 48%. The viability at 20 µM ([4]; CLL) was 39%, the viability at 10 µM ([4]; CML) was 51% and the viability at 20 µM ([4]; CML) was 46%. For the same compound, the viability at 10 µM ([4]; Children hepatoblastoma) was 67%, the viability at 20 µM ([4]; Children hepatoblastoma) was 57% and the viability at 10 µM ([4]; Colon adenocarcinoma) was 58%. It also gave a viability at 20 µM ([4]; Colon adenocarcinoma) of 49%, a viability at 10 µM ([4]; Colorectal cancer) of 66% and a viability at 20 µM ([4]; Colorectal cancer) of 55%. For the same compound, the viability at 10 µM ([4]; Gastric cancer) was 51%, the viability at 20 µM ([4]; Gastric cancer) was 39% and the viability at 10 µM ([4]; Gastrointestinal tumor) was 56%. It also gave a viability at 20 µM ([4]; Gastrointestinal tumor) of 51%, a viability at 10 µM ([4]; Glioma) of 69% and a viability at 20 µM ([4]; Glioma) of 60%. It also gave a viability at 10 µM [4, 6] of 64%, a viability at 20 µM [4, 6] of 57% and a viability at 10 µM ([4]; Laryngeal cancer) of 65%. For the same compound, the viability at 20 µM ([4]; Laryngeal cancer) was 55%, the viability at 10 µM ([4]; Liver cancer) was 74% and the viability at 20 µM ([4]; Liver cancer) was 61%. The viability at 10 µM ([4]; Lung adenocarcinoma) was 68%, the viability at 20 µM ([4]; Lung adenocarcinoma) was 55% and the viability at 10 µM ([4]; Lung cancer) was 61%. It also gave a viability at 20 µM ([4]; Lung cancer) of 54%, a viability at 10 µM ([4]; Malignant melanoma) of 81% and a viability at 20 µM ([4]; Malignant melanoma) of 76%. For the same compound, the viability at 10 µM ([4]; Nasopharynx cancer) was 57%, the viability at 20 µM ([4]; Nasopharynx cancer) was 48% and the viability at 10 µM ([4]; Ovarian cancer) was 57%. It also gave a viability at 20 µM ([4]; Ovarian cancer) of 45%, a viability at 10 µM ([4]; Pancreatic cancer) of 55% and a viability at 20 µM ([4]; Pancreatic cancer) of 49%. For the same compound, the viability at 10 µM ([4]; Prostate cancer) was 61%, the viability at 20 µM ([4]; Prostate cancer) was 51% and the viability at 10 µM ([4]; Retinoblastoma) was 62%. For the same compound, the viability at 20 µM ([4]; Retinoblastoma) was 54%, the viability at 10 µM ([4]; Skin cancer) was 46% and the viability at 20 µM ([4]; Skin cancer) was 39%. It also gave a viability at 10 µM [5, 7] of 93%, a viability at 10 µM [5, 8] of 92% and a viability at 20 µM [5, 7] of 92%. For the same compound, the viability at 20 µM [5, 8] was 90%.

For `CCOC(=O)[C@@H]1CCCN1C[C@@H]1C(=O)O[C@H]2[C@H]1CCC1(CC1)[C@@H]1CCC3(CC3)[C@H]21` [Compound 29], the “Content of TNF-α” value [1] was 0.66 ± 0.046 ng/mL, the “Content of IL-1β” value [2] was 0.34 ± 0.039 ng/mL and the “Content of PGE2” value [3] was 27.64 ± 2.37 ng/mL. For the same compound, the viability at 10 µM ([4]; AML) was 84%, the viability at 20 µM ([4]; AML) was 78% and the viability at 10 µM ([4]; Brain glioma) was 82%. It also gave a viability at 20 µM ([4]; Brain glioma) of 76%, a viability at 10 µM ([4]; Brain tumor) of 87% and a viability at 20 µM ([4]; Brain tumor) of 76%. For the same compound, the viability at 10 µM ([4]; Breast cancer) was 79%, the viability at 20 µM ([4]; Breast cancer) was 72% and the viability at 10 µM ([4]; CLL) was 85%. The viability at 20 µM ([4]; CLL) was 79%, the viability at 10 µM ([4]; CML) was 81% and the viability at 20 µM ([4]; CML) was 75%. The viability at 10 µM ([4]; Children hepatoblastoma) was 85%, the viability at 20 µM ([4]; Children hepatoblastoma) was 77% and the viability at 10 µM ([4]; Colon adenocarcinoma) was 81%. It also gave a viability at 20 µM ([4]; Colon adenocarcinoma) of 75%, a viability at 10 µM ([4]; Colorectal cancer) of 84% and a viability at 20 µM ([4]; Colorectal cancer) of 78%. For the same compound, the viability at 10 µM ([4]; Gastric cancer) was 79%, the viability at 20 µM ([4]; Gastric cancer) was 72% and the viability at 10 µM ([4]; Gastrointestinal tumor) was 81%. It also gave a viability at 20 µM ([4]; Gastrointestinal tumor) of 75%, a viability at 10 µM ([4]; Glioma) of 84% and a viability at 20 µM ([4]; Glioma) of 78%. The viability at 10 µM [4, 6] was 82%, the viability at 20 µM [4, 6] was 74% and the viability at 10 µM ([4]; Laryngeal cancer) was 85%. It also gave a viability at 20 µM ([4]; Laryngeal cancer) of 79%, a viability at 10 µM ([4]; Liver cancer) of 85% and a viability at 20 µM ([4]; Liver cancer) of 77%. The viability at 10 µM ([4]; Lung adenocarcinoma) was 88%, the viability at 20 µM ([4]; Lung adenocarcinoma) was 81% and the viability at 10 µM ([4]; Lung cancer) was 87%. For the same compound, the viability at 20 µM ([4]; Lung cancer) was 76%, the viability at 10 µM ([4]; Malignant melanoma) was 82% and the viability at 20 µM ([4]; Malignant melanoma) was 73%. It also gave a viability at 10 µM ([4]; Nasopharynx cancer) of 85%, a viability at 20 µM ([4]; Nasopharynx cancer) of 79% and a viability at 10 µM ([4]; Ovarian cancer) of 88%. It also gave a viability at 20 µM ([4]; Ovarian cancer) of 81%, a viability at 10 µM ([4]; Pancreatic cancer) of 82% and a viability at 20 µM ([4]; Pancreatic cancer) of 76%. The viability at 10 µM ([4]; Prostate cancer) was 85%, the viability at 20 µM ([4]; Prostate cancer) was 79% and the viability at 10 µM ([4]; Retinoblastoma) was 85%. It also gave a viability at 20 µM ([4]; Retinoblastoma) of 77%, a viability at 10 µM ([4]; Skin cancer) of 82% and a viability at 20 µM ([4]; Skin cancer) of 73%. For the same compound, the viability at 10 µM [5, 7] was 96%, the viability at 10 µM [5, 8] was 93% and the viability at 20 µM [5, 7] was 95%. For the same compound, the viability at 20 µM [5, 8] was 92%.
